Measurements from patent US20150010475A1, “CRLF-2 BINDING PEPTIDES, PROTOCELLS AND VIRAL-LIKE PARTICLES USEFUL IN THE TREATMENT OF CANCER, INCLUDING ACUTE LYMPHOBLASTIC LEUKEMIA (ALL)” (STC. UNM, priority 2011, published 2015).
≈ marks a conversion by molar mass, not a printed value.

Key:
CRLF2 = biological target: T1, CRLF2 (Homo sapiens, UniProt Q9HC73); experiment: Flow cytometry binding of M13 phage displaying peptide to BaF3-CRLF2 cells; conditions: for binding to CRLF2 (peptides pulled from enriched phage population): phage display selection on BaF3 cells expressing CRLF2
T1 construct: expressed in transfected cells
T1 sequence (Q9HC73 23-371): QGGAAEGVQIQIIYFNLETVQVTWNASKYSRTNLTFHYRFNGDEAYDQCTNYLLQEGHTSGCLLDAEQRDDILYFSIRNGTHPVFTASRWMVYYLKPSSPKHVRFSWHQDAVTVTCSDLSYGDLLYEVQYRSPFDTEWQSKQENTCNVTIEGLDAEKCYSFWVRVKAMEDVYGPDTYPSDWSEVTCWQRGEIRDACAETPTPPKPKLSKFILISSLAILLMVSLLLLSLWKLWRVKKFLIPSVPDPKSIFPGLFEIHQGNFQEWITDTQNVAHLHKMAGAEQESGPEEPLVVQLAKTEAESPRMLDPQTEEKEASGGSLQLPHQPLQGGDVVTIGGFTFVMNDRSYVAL
Experimental: (§1) Flow cytometry is used to evaluate binding of individual phage clones within consensus sequences. In this case, a saturable binding curve can be constructed, allowing for the determination of the dissociation constant (Kd) of phage displaying potentially specific peptides that bind cells with high levels of CRLF2 expression but not parental cell lines with minimal expression.
The selections were carried out on BaF3 cells that had been induced to create the cell receptor CRLF2 and express it on their surface. Negative selections were carried out on the parental cell line (no CRLF2) in order to assure that the ligand identified was in fact binding to the desired target and not to other features on the surface of the cells.
(§2) Affinity selections on cellular targets are complicated by the heterogeneity of surface protein expression on mammalian cells, which frequently results in a large number of peptides that bind unsuitable targets. A major goal of the work we propose is to create an efficient selection/counter-selection scheme. To illustrate our strategy, the gene encoding human CRLF2 was introduced into BaF3 cells (a murine IL3-dependent pro-B cell line) and the protein's abundant surface expression was confirmed by FACS (as shown in Project 2). The resulting BaF3-CRLF2 cells, together with the BaF3 parental line (which specifically lacks CRLF2), served as a matched selection/counter-selection pair and provided a convenient means of discarding affinity selectants that bind the many non-CRLF2 receptors inevitably encountered on the BaF3 surface.
(§3) In this case, a saturable binding curve can be constructed, allowing for the determination of the disassociation constant (Kd) of phage displaying potential specific peptides that bind cells with high levels of CRLF2 expression but not parental cell lines with minimal expression. Data shown for the MTAAPVH phage clone on BaF3/CRLF2 (A) and parental BaF3 cells. (B) Binding curves were constructed by titrating the amount of phage with constant cell concentrations in order to quantitatively describe binding. Non-specific binding was determined by incubating wild-type phage with the same cell lines.
CRLF2 may be targeted using its natural ligand TSLP or with peptides that are specifically directed towards CRLF2; both approaches are being developed. […] Peptides selected by affinity for Ba-F3-CRLF2 cells were counter-selected against parental Ba-F3 cells to eliminate any phage binding receptors common to both cell types. We find that a matched selection/counter-selection pair greatly increases the specificity of the affinity selection process. It is important to note that in the VLP screening method, each VLP encapsidates its own mRNA. This means that the nucleotide sequences encoding any particular VLP and its guest peptide or protein are contained within the particle itself and can be recovered by reverse transcription and polymerase chain reaction.

[1] = tested on: MHH CALL 4, Mutz-5 and BaF3/CRLF-2 cells; experiment: Internalization of CRLF-2-targeted protocells by target cells; type: cell-based, human; conditions: peptide on protocell surface
Experimental: The upper-left portion of FIG. 7 depicts the internalization efficacy of CRLF-2-targeted protocells in the absence of the R8 peptide. The upper right portion of FIG. 7 presents images of CRLF-2-positive (MHH CALL 4) and CRLF-2-negative (MOLT 4) cells exposed to targeted protocells for 37° C. for two hours. N.D.=not detectable; bilayer composition=DOIDA in DSPC with 5 wt % DSPE; approximate peptide density=10 targeting peptides/protocell and ˜500 H5WYG peptides/protocell. Targeted protocells can become internalized within target cells (MHH CALL 4, Mutz-5 and BaF3/CRLF-2) over time. However, overall internalization efficiency is only ˜20%, which could lead to non-specific cytotoxicity. The lower-left portion of FIG. 7 depicts the internalization efficacy of CRLF-2-targeted protocells in the presence of the R8 peptide. The lower right portion of FIG. 7 presents images of CRLF-2-positive (MHH CALL 4) and CRLF-2-negative (MOLT 4) cells exposed to targeted protocells for 37° C. for two hours. N.D.=not detectable; bilayer composition=DOIDA in DSPC with 5 wt % DSPE; approximate peptide density=10 targeting peptides/protocell and −500 H5WYG peptides/protocell.
The upper-left portion of FIG. 8 depicts internalization kinetics for CRLF-2-targeted protocells in the absence and presence of the R8 peptide. […]

Hep3B = experiment: Cytotoxicity of DOX, free or delivered in protocells or liposomes, in Hep3B; type: cell-based; conditions: as DOX
Excerpt: For toxicology studies there are two major issues which must be addressed: silica loading in the tissues, derived from the mesoporous silica core of the protocell, and non-targeted or “off target” delivery of the therapeutic cargos to normal tissues. […] Nevertheless, we will systematically evaluate all major organs and tissues in treated mice for silica deposition and cellular damage after treatment with loaded and unloaded protocells. […] As a benchmark, we compared oxidative stress and cell viability of neutral, positively and negatively-charged targeted protocells with corresponding liposomes and other control particles at 10^9 particles/mL corresponding to ˜1-2 μg/mL (FIG. 24). […] In preliminary studies (FIG. 25), we also compared the IgG response of C57Bl/6 mice immunized twice with 10 μg doses of targeted and SP94-targeted protocells to that of virus-like particles (VLPs) conjugated to the same concentration of targeting peptide (MS2 SP94). […] When considering therapeutically administered doses, for the hepatocellular carcinoma cell line Hep3B, the LC50 and LC90 values of free DOX are 150 and 500 ng/mL, respectively. […] As discussed above, Si loading will be assessed by ICP-MS. […]

BaF3 parental cells = experiment: Flow cytometry binding of M13 phage displaying peptide to BaF3 parental cells; set-up: species or system murine
Excerpt: as §1, §2, §3
CRLF2 may be targeted using its natural ligand TSLP or with peptides that are specifically directed towards CRLF2; both approaches are being developed. […]

[2] = biological target: human CRLF2 expressed on the cell surface (BaF3-CRLF2, REH-CRLF2, MHH CALL 4, MUTZ5 cells) (human) (UniProt Q9HC73); experiment: protocell binding to BaF3-CRLF2, MUTZ5 and MHHCALL4 cells, against untargeted protocells, the parental BAF3 line or CRLF2(-) NALM6 cells (FIG. 19, 20)
[3] = biological target: T2, human CRLF2 expressed on the cell surface (BaF3-CRLF2, REH-CRLF2, MHH CALL 4, MUTZ5 cells) (human), Q9HC73; experiment: binding of M13 phage to BaF3-CRLF2 cells (FIG. 18)
T2 chain: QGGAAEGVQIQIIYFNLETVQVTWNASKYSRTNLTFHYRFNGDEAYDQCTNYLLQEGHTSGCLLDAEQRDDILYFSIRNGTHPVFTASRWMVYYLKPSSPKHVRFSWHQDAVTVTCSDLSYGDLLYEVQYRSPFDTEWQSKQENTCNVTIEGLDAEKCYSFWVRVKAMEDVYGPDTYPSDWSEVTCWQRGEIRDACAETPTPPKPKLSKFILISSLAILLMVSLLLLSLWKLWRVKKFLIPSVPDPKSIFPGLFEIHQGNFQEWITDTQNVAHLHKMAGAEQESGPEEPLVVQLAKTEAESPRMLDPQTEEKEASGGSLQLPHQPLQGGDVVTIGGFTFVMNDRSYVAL

[4] = biological target: T2, human CRLF2 expressed on the cell …; experiment: flow cytometry, M13 phage on BaF3-CRLF2 cells (FIG. 3)
[5] = biological target: T3, human CRLF2 expressed on the cell surface (BaF3-CRLF2, REH-CRLF2, MHH CALL 4, MUTZ5 cells) (human, UniProt Q9HC73 23-371); experiment: flow cytometry, Alexa-fluor-647 labeled particles incubated 1 h with BaF3/CRLF-2 cells
T3 construct: whole, on cells; Parental BaF3 / REH cells lack CRLF2 and served as negative controls; also called TSLP receptor; TSLPR
T3 sequence (looked up): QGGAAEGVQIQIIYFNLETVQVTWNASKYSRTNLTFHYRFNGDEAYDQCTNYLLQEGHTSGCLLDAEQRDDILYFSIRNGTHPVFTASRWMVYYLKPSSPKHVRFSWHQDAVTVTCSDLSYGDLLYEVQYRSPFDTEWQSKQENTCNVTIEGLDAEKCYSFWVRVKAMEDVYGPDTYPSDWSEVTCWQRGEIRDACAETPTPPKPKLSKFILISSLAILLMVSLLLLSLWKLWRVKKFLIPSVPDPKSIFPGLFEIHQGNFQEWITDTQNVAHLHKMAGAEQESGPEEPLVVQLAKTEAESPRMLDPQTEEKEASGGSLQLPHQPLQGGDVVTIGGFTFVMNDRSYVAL

With FSYLPSH the “binding to CRLF2 (peptides pulled from enriched phage population)” value (from here on “binding to CRLF2”) (CRLF2) was “exhibited binding to CRLF2”.

With “RRRRRRRR [R8, 8 mer polyarginine that promotes internalization, reference compound]” the “promotion of internalization of protocells by CRLF2-positive cells” value [1] was “promoted this selective internalization in a density-dependent manner”.

In the case of `COc1cccc2c1C(=O)c1c(O)c3c(c(O)c1C2=O)C[C@@](O)(C(=O)CO)C[C@@H]3O[C@H]1C[C@H](N)[C@H](O)[C@H](C)O1` [free DOX, doxorubicin], the LC50 (Hep3B) is reported as 0.15 µg/mL (≈ 0.276 µM) and the LC90 (Hep3B) is reported as 0.5 µg/mL (≈ 0.92 µM).

In the case of MTAAPVH, the “Specific binding of phage clone to CRLF2 positive cells” value (CRLF2; BaF3/CRLF2, non-specific binding from wild-type phage) is reported as “significant”, the “binding to CRLF2” value (CRLF2) is reported as “best binder” and the “Specific binding of phage clone to the parental cells” value (BaF3 parental cells; parental BaF3) is reported as “extremely minimal”. For the same molecule, the “promotion of internalization of protocells by CRLF2-positive cells” value [1] was “does not promote rapid internalization”.

With TDAHASV [peptide ligand to CRLF2] the Kd (CRLF2; peptide displayed on M13 phage, BaF3-CRLF2 cells) was 27.9 nM, the “binding to CRLF2” value (CRLF2) was “exhibited binding to CRLF2” and the “binding to the BaF3 parent” value (BaF3 parental cells; peptide displayed on M13 phage) was “not showing significant binding”. For the same molecule, the Kd (BaF3 parental cells; peptide displayed on M13 phage, read-out: Kd for the BaF3 parental line) was under 3000 nM.

“CRLF2-targeted protocells conjugated with the CRLF2-targeting peptide TDAHASV” showed a fold higher affinity [2] of 1000 fold.

For TDAHASV (modifications not checked) [M13 filamentous phage displaying the CRLF2-binding peptide TDAHASV], the Kd [3] was 27.9 nM and the Kd [4] was 3 nM.

B1: VLPs not displaying any additional peptides (other)
chain: ASNFTQFVLVDNGGTGDVTVAPSNFANGVAEWISSNSRSQAYKVTCSVRQSSAQNRKYTIKVEVPKVATQTVGGVELPVAAWRSYLNMELTIPIFATNSDCELIVKAMQGLLKDGNPIPSAIAANSGIY
notes: Control particle; also called nontargeted VLPs; particles not displaying any additional peptides
B1: no binding [5].
